# Test system: MCF-7 human breast cancer cells
# Test: AlamarBlue cell viability assay
# Type: cell-based
# Conditions: MCF-7, 72 h
# Description: The antiproliferative potential of the synthesised 3-fluoro β-lactams 26–35 and 3,3-difluoro β-lactams 36–45 was evaluated in MCF-7 human breast cancer cells using the AlamarBlue assay, with CA-4 as reference compound (Figure 3). […] The results for the preliminary in vitro antiproliferative screen for 3-fluoro β-lactam compounds (26–29), which contain different substituents at the para position in the B ring, are presented in Figure 3A.
# Cells were seeded at a density of 5 × 10^3 cells/well (MCF-7 and MDA-MB-231) and 1 × 10^4 cells/well (HEK-293T) in 96-well plates (200 μL per well). After 24 h, cells were then treated with medium alone, with vehicle (1% ethanol (v/v)) or with CA-4 or β-lactam compounds at 1 μM and 10 μM concentrations. […] Cell proliferation for MCF-7 cells was analysed with the AlamarBlue assay (Invitrogen Corp.) as previously described by us. After 72 h, AlamarBlue (10% (v/v)) was added to each well, and plates were incubated for 3–5 h at 37 °C in the dark. Fluorescence results were obtained with a 96-well fluorimeter with excitation at 530 nm and emission at 590 nm with results recorded as percentage viability relative to vehicle control (100%). Dose–response curves were obtained and IC50 values (concentration of drug resulting in 50% reduction in cell survival) were calculated using Prism (GraphPad Software, Inc., La Jolla, CA, USA).
# Figure 3 Preliminary cell viability data for 3-fluoro and 3,3-difluoro β-lactam compounds. (A) 3-Fluoro β-lactam compounds containing different para-substituent ring B 26–29; 3-fluoro β-lactam compounds containing different meta-substituent ring B 30, 32–35; (B) 3-difluoro β-lactam compounds containing different para-substituent ring B 36–39; 3-difluoro β-lactam compounds containing different meta-substituent ring B 40, 42–45 in MCF-7 breast cancer cells. Cell proliferation of MCF-7 cells was determined with an AlamarBlue assay (seeding density […] for 96-well plates). Compound concentrations of either 10 μM or 1 μM for 72 h were used to treat the cells with control wells containing vehicle ethanol (1% v/v) and CA-4 (10 μM and 1 μM). The mean value for three experiments is shown with the ± S.E.M. for three independent experiments.
smiles,measurement,setting,value
"COc1ccc(/C=C\c2cc(OC)c(OC)c(OC)c2)cc1O [CA-4, combretastatin A-4, reference compound]",IC50,"Homo sapiens, MCF7, 72 h",3 nM
same,IC50,,3.5 nM

# — paper PMC9501633, “Synthesis, Characterisation and Mechanism of Action of Anticancer 3-Fluoroazetidin-2-ones” (Pharmaceuticals, 2022)
